The source made the active and inactive calls. The calls are words filed in the database; no cut-off is given here.
Experiments:
[1] = tested on: Glycogen synthase kinase-3 alpha (Homo sapiens), P49840 [UNDEFINED MUTATION]; assay: Inhibition of human GSK-3alpha S449A mutant (2 to end residues) at 10 uM using phospho GS2 peptide as substrate after 40 mins in presence of [gamma-33ATP] by scintillation counting method relative to control
[2] = target: T1, Glycogen synthase kinase-3 alpha (Homo sapiens, UniProt P49840); assay: Inhibition of human GSK-3alpha S449A mutant (2 to end residues) using phospho GS2 peptide as substrate after 40 mins in presence of [gamma-33ATP] by scintillation counting method
[3] = target: GSK-3beta (H350L mutant) (Homo sapiens, UniProt P49841, H350L); assay: Inhibition of human GSK-3beta H350L mutant (2 to end residues) at 10 uM using phospho GS2 peptide as substrate after 40 mins by [gamma-33ATP] radiometric assay relative to control; details: human GSK-3beta H350L mutant enzyme (residues 2 to end), probe phospho GS2 peptide
[4] = target: Glycogen synthase kinase-3 beta (Homo sapiens, UniProt P49841, H350L); assay: Inhibition of human GSK-3beta H350L mutant (2 to end residues) at 10 uM using phospho GS2 peptide as substrate after 40 mins by [gamma-33ATP] radiometric assay
[5] = tested on: HL-60; assay: Induction of granulocytic differentiation in human HL60 cells assessed as increase in CD11b-APC-Cy7 positive cells at 10 to 30 uM after 6 days by flow cytometry analysis; format: functional, cell-based
[6] = tested on: HL-60; assay: Antiproliferative activity against human HL60 cells assessed as reduction in viability at 1 to 30 uM after 3 days by SRB assay; format: functional, cell-based
[7] = tested on: NB-4; assay: Antiproliferative activity against human NB4 cells assessed as reduction in viability at 1 to 30 uM after 3 days by SRB assay; format: functional, cell-based
[8] = tested on: HL-60; assay: Inhibition of colony formation in human HL60 cells at 30 uM preincubated for 72 hrs followed by compound washout and measured after 7 to 10 days; format: functional, cell-based
[9] = tested on: NB-4; assay: Inhibition of colony formation in human NB4 cells at 30 uM preincubated for 72 hrs followed by compound washout and measured after 7 to 10 days; format: functional, cell-based
[10] = tested on: NB-4; assay: Induction of granulocytic differentiation in human NB4 cells assessed as increase in CD11b-APC-Cy7 positive cells at 10 to 30 uM after 6 days by flow cytometry analysis; format: functional, cell-based
[11] = tested on: HL-60; assay: Induction of granulocytic differentiation in human HL60 granulocytic assessed as increase in CD11c-APC positive cells at 10 to 30 uM after 6 days by flow cytometry analysis; format: functional, cell-based
[12] = tested on: NB-4; assay: Induction of granulocytic differentiation in human NB4 cells assessed as increase in CD11c-APC positive cells at 10 to 30 uM after 6 days by flow cytometry analysis; format: functional, cell-based
[13] = tested on: HL-60; assay: Induction of granulocytic differentiation in human HL60 cells assessed as increase in CD14-FITC positive cells at 10 to 30 uM after 6 days by flow cytometry analysis; format: functional, cell-based
[14] = tested on: NB-4; assay: Induction of granulocytic differentiation in human NB4 cells assessed as increase in CD14 positive cells at 10 to 30 uM after 6 days by FITC staining based flow cytometry analysis; format: functional, cell-based
[15] = species: Homo sapiens; assay: Selectivity index, ratio of IC50 for inhibition of human GSK-3beta H350L mutant (2 to end residues) to IC50 for inhibition of human GSK-3alpha S449A mutant (2 to end residues)
[16] = target: T2, Glycogen synthase kinase-3 beta (Homo sapiens, UniProt P49841); assay: Inhibition of human GSK-3beta by mobility shift micro-fluidic assay
[17] = target: T1, Glycogen synthase kinase-3 alpha; assay: Inhibition of human GSK-3alpha using YRRAAVPPSPSLSRHSSPHQ(pS)EDEEE as substrate measured in presence of [gamma-33P]ATP by radiometric assay
[18] = target: T2, Glycogen synthase kinase-3 beta; assay: Inhibition of human GSK-3beta using YRRAAVPPSPSLSRHSSPHQ(pS)EDEEE as substrate measured in presence of [gamma-33P]ATP by radiometric assay
[19] = tested on: HL-60; assay: Induction of monocytic differentiation in human HL60 cells assessed as increase in CD11b-APC-Cy7 positive cells at 30 uM after 6 days by flow cytometry analysis; format: functional, cell-based
[20] = tested on: NB-4; assay: Induction of monocytic differentiation in human NB4 cells assessed as increase in CD11b-APC-Cy7 positive cells at 30 uM after 6 days by flow cytometry analysis; format: functional, cell-based
[21] = tested on: HL-60; assay: Induction of monocytic differentiation in human HL60 monocytic assessed as increase in CD11c-APC positive cells at 30 uM after 6 days by flow cytometry analysis; format: functional, cell-based
[22] = tested on: NB-4; assay: Induction of monocytic differentiation in human NB4 cells assessed as increase in CD11c-APC positive cells at 30 uM after 6 days by flow cytometry analysis; format: functional, cell-based
[23] = tested on: HL-60; assay: Induction of monocytic differentiation in human HL60 cells assessed as increase in CD14-FITC positive cells at 30 uM after 6 days by flow cytometry analysis; format: functional, cell-based
[24] = tested on: NB-4; assay: Induction of monocytic differentiation in human NB4 cells assessed as increase in CD14 positive cells at 30 uM after 6 days by FITC staining based flow cytometry analysis; format: functional, cell-based
[25] = Activation of wnt/beta-catenin signalling pathway in human HL60 cells assessed as stabilization of beta-catenin at 30 uM after 24 hrs by Western blot analysis; format: cell-based
[26] = Activation of wnt/beta-catenin signalling pathway in human NB4 cells assessed as stabilization of beta-catenin at 30 uM after 24 hrs by Western blot analysis; format: cell-based

Sequence of Glycogen synthase kinase-3 alpha (Homo sapiens), P49840 [UNDEFINED MUTATION] (P49840 whole entry, looked up, stated change not applied): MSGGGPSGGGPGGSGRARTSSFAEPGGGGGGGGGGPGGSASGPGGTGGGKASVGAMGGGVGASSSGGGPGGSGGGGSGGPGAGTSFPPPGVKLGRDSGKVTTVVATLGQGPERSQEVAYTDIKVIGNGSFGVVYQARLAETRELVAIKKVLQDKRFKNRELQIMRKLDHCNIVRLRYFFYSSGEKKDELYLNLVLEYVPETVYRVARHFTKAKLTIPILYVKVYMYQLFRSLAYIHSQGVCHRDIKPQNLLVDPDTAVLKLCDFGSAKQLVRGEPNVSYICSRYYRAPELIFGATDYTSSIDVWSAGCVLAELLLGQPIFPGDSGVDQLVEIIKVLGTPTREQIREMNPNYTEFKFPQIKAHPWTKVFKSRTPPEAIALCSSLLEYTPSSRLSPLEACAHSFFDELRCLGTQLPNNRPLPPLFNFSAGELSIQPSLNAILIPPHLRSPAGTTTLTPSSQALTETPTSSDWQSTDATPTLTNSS
T1 sequence (P49840 whole entry, the tested form may be a part): as the sequence (P49840 whole entry, looked up, stated change not applied) above
Sequence of GSK-3beta (H350L mutant) (P49841 whole entry, looked up, stated change not applied, the tested form may be a part): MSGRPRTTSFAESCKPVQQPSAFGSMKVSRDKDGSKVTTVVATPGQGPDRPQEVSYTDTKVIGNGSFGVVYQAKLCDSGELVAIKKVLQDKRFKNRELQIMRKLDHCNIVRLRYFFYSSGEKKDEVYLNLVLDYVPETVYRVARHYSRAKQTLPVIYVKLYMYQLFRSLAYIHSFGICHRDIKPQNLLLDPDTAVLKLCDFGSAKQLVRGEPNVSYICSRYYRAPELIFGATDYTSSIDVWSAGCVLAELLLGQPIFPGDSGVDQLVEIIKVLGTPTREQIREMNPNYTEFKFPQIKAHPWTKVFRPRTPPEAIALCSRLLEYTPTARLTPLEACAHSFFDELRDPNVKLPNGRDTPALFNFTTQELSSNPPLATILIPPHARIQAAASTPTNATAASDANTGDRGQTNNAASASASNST
Sequence of Glycogen synthase kinase-3 beta (Homo sapiens, UniProt P49841, H350L) (P49841 whole entry, looked up, stated change not applied): as the sequence (P49841 whole entry, looked up, stated change not applied, the tested form may be a part) above
T2 sequence (P49841 whole entry): as the sequence (P49841 whole entry, looked up, stated change not applied, the tested form may be a part) above

| SMILES | inhibition [1] [%] | IC50 [2] [nM] | inhibition at 40 min, 10 µM [3] [%] | IC50 [4] [nM] | further results |
| --- | --- | --- | --- | --- | --- |
| Cc1ccc(-c2ccc(/C=C3/SC(=N)NC3=O)o2)c([N+](=O)[O-])c1 | 85 | 162 | 89 | 320 |  |
| O=C(N/N=C/c1cccc(Cl)c1)c1cc(-c2ccc3c4c(cccc24)CC3)[nH]n1 | 52 | 11200 |  |  |  |
| CC1=C(/C=C/C(C)=C/C=C/C(C)=C/C(=O)O)C(C)(C)CCC1 |  |  |  |  | Activity [5]: Active; Activity [6]: Active; Activity [7]: Active; inhibition [8]: Active; inhibition [9]: Active; Activity [10]: Active; Activity [11]: Active; Activity [12]: Active; Activity [13]: Active; Activity [14]: Active |
| N=C1NC(=O)/C(=C\c2ccc(-c3ccc(Cl)c(Cl)c3)o2)S1 | 80 to 81 | 300 | 75 | 576 | Ratio IC50 [15]: 1.9 |
| Cc1ccccc1OCC(=O)Nc1ccc(Oc2ccc3c(c2)C(=O)NC3=O)cc1 | 54 | 10200 |  |  |  |
| Cc1ccc(-c2ccc(/C=C3/SC(=N)NC3=O)o2)cc1Cl | 81 | 301 | 77 | 1430 |  |
| Cc1ccc(-c2ccc(/C=C3/NC(=S)NC3=O)o2)c(Br)c1 | 65 to 90 | 440 | 62 | 862 | Ratio IC50 [15]: 1.95 |
| N=C1NC(=O)/C(=C\c2ccc(-c3ccc(Cl)cc3Cl)o2)S1 | 82 | 1880 | 93 | 1200 |  |
| O=C1NC(=O)N(c2ccc(Br)cc2)C(=O)/C1=C\NCCc1c[nH]c2ccccc12 | 66 | 4600 |  |  |  |
| CCCOC(=O)c1cc(-c2ccc(/C=C3/NC(=S)NC3=O)o2)ccc1Cl | 88 | 159 | 81 | 405 |  |
| O=C1NC(=O)C(c2cnc3ccccn23)=C1c1cn2c3c(cc(F)cc13)CN(C(=O)N1CCCCC1)CC2 [LY-2090314] | 99 | 1.02 | 97 | 1.29 |  |
| CCOc1c(/C=C2/SC(=O)NC2=O)cccc1OC | 54 | 16800 |  |  |  |
| NC1=NC(=O)/C(=C\c2ccc(-c3ccccc3[N+](=O)[O-])o2)S1 | 91 | 2800 | 82 | 2500 |  |
| Cc1c(-c2ccc(/C=C3/SC(=N)NC3=O)o2)ccc([N+](=O)[O-])c1C | 64 | 227 | 66 | 571 |  |
| O=C(O)CCC(=O)N1N=C(c2c(-c3ccccc3)c3cc(Cl)ccc3[nH]c2=O)CC1c1ccco1 (stereo not drawn) |  | 13000 |  |  |  |
| Cc1ccc(-c2ccc(/C=C3/NC(=S)NC3=O)o2)cc1Cl | 76 | 904 | 72 | 1290 |  |
| N=C1NC(=O)/C(=C\c2ccc(-c3cc([N+](=O)[O-])ccc3Cl)o2)S1 | 71 | 2680 | 65 | 1760 |  |
| O=C1NC(=S)N/C1=C/c1ccc(-c2cccc(C(=O)O)c2)o1 | 97 | 145 | 96 | 338 |  |
| CC[C@@]1(c2ccccc2)C2=C(CC(C)(C)CC2=O)Nc2n[nH]cc21 |  |  |  |  | IC50 [16]: 515 nM |
| N=C1NC(=O)/C(=C\c2ccc(-c3cccc(C(=O)O)c3)o2)S1 | 97 | 207 | 93 | 308 |  |

| SMILES | inhibition [1] [%] | IC50 [2] [nM] | inhibition at 40 min, 10 µM [3] [%] | IC50 [4] [nM] | further results |
| --- | --- | --- | --- | --- | --- |
| CCCCOC(=O)c1cc(-c2ccc(/C=C3/NC(=S)NC3=O)o2)ccc1Cl | 65 | 710 | 55 | 1190 |  |
| CN1C(=N)NC(=O)/C1=C\c1ccc(-c2ccc(F)cc2)o1 | 81 | 1340 | 78 | 1890 |  |
| CC(=O)/N=C1/NC(=O)/C(=C\c2ccc(-c3ccc(C(=O)O)cc3)o2)S1 | 86 | 557 | 72 | 3720 |  |
| N=C1NC(=O)/C(=C\c2ccc(-c3cccc(Cl)c3)o2)S1 | 94 | 282 | 88 | 767 |  |
| O=C1NC(=S)N/C1=C/c1ccc(-c2ccc([N+](=O)[O-])cc2)o1 | 88 | 412 | 72 | 584 |  |
| CC1=NN(c2cccc(C(=O)O)c2)C(=O)/C1=C\c1ccc(-c2ccc3c(c2)C(=O)NC3=O)o1 | 58 | 6150 |  |  |  |
| O=C1NC(=S)N/C1=C/c1ccc(-c2ccccc2Cl)o1 | 84 | 609 | 86 | 917 |  |
| CCCCCSc1nc2c(c(=O)[nH]c(=O)n2C)n1CC(O)COc1ccccc1 (stereo not drawn) | 25 |  |  |  |  |
| N=C1NC(=O)/C(=C\c2ccc(-c3ccccc3Cl)o2)S1 | 95 | 242 | 95 | 565 |  |
| O=C1NC(=S)N/C1=C/c1ccc(Sc2ccc(Cl)cc2)o1 | 23 |  |  |  |  |
| CC(=O)/N=C1/NC(=O)/C(=C\c2ccc(-c3ccc(F)cc3F)o2)S1 | 15 |  |  |  |  |
| COc1ccc(-c2ccc(CNc3n[nH]c(C)n3)o2)cc1Cl | 8 |  |  |  |  |
| Cc1ccc(SCc2[nH]nc3c2C(c2ccnc4ccccc24)C(C#N)=C(N)O3)cc1 (stereo not drawn) | 2 |  |  |  |  |
| c1ccc(-c2noc(CSc3nnc(-c4ccncc4)o3)n2)cc1 |  |  |  |  | IC50 [17]: 451 nM; IC50 [18]: 521 nM; Activity [6]: Active; Activity [7]: Active; Activity [19]: Active; Activity [20]: Active; Activity [21]: Active; Activity [22]: Active; Activity [23]: Active; Activity [24]: Active; Activity [25]: Active; Activity [26]: Active |
| O=C(O)CCC(=O)N1N=C(c2c(O)nc3ccc(Cl)cc3c2-c2ccccc2)CC1c1ccco1 (stereo not drawn) | 67 |  |  |  |  |
| O=C1NC(=S)N/C1=C/c1ccc(-c2ccc(C(=O)O)cc2)o1 | 97 | 309 | 91 | 743 |  |
| COc1cc([N+](=O)[O-])ccc1-c1ccc(/C=C2/SC(=N)NC2=O)o1 | 29 |  |  |  |  |
| NC(=O)CSc1nc2c(N)ncnc2n1Cc1ccccc1 | -10 |  |  |  |  |
| COc1ccc(CNc2cc(-c3ccco3)n[nH]2)cc1 | 1 |  |  |  |  |
| O=C1NC(=S)N/C1=C/c1ccc(-c2ccc(Cl)c(Cl)c2)o1 | 65 | 370 | 59 | 678 |  |
